Article PMC2772130 (Chemical research in toxicology, 2008)

Legend:
[1] = molecular target: T1, P450 1A2 (Homo sapiens, UniProt P05177); assay: Quenching of P450 fluorescence with inhibitors, P450 1A2; format: binding
T1 sequence (P05177 1-516): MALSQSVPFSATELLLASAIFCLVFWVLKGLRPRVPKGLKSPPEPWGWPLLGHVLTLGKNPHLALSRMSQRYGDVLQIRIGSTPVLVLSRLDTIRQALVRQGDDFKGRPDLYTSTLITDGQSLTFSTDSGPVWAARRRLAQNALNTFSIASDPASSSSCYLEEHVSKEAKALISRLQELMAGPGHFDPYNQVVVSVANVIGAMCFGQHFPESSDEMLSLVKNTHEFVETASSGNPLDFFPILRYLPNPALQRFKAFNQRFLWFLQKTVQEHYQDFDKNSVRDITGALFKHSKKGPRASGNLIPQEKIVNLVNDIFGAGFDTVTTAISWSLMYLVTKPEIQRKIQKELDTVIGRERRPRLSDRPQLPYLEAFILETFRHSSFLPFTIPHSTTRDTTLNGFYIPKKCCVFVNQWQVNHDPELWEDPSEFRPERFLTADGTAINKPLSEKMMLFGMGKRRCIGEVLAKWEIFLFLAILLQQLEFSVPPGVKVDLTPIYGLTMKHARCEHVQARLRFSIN

[2] = molecular target: T2, P450 1B1 (Homo sapiens, UniProt Q16678); assay: Inhibition of P450 1B1-dependent 7-ethoxyresorufin O-deethylation; details: for IC50: inhibition of EROD activity IC50, 15 s of incubation time (direct and direct/restore inhibitors), means and SE
T2 sequence (Q16678 1-543): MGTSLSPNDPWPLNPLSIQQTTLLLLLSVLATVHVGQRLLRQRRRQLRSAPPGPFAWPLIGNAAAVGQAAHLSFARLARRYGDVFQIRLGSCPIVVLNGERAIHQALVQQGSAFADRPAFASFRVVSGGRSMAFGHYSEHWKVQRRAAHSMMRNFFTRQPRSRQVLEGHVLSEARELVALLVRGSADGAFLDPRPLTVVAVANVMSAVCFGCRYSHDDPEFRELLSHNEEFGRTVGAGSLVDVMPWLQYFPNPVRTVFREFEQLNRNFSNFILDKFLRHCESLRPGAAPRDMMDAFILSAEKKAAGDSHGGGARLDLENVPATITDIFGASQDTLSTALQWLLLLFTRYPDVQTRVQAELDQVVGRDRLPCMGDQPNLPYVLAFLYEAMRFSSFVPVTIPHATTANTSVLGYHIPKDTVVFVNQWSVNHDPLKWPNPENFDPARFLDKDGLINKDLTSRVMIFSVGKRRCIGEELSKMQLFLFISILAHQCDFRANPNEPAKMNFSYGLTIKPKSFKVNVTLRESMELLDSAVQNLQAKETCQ

[3] = molecular target: T2, P450 1B1; assay: Quenching of PAH; details: for half-maximal time (t1/2) to decrease B[a]P emission: 10 nM P450 1B1, 25 °C
[4] = molecular target: T1, P450 1A2; assay: Inhibition of P450 1A2-dependent EROD activity; format: biochemical; details: 37 °C
[5] = molecular target: T1, P450 1A2; details: cited from earlier work
[6] = molecular target: T3, P450 1A1 (Homo sapiens, UniProt P04798); assay: Quenching of P450 fluorescence with inhibitors, P450 1A1; format: binding
T3 sequence (P04798 1-512): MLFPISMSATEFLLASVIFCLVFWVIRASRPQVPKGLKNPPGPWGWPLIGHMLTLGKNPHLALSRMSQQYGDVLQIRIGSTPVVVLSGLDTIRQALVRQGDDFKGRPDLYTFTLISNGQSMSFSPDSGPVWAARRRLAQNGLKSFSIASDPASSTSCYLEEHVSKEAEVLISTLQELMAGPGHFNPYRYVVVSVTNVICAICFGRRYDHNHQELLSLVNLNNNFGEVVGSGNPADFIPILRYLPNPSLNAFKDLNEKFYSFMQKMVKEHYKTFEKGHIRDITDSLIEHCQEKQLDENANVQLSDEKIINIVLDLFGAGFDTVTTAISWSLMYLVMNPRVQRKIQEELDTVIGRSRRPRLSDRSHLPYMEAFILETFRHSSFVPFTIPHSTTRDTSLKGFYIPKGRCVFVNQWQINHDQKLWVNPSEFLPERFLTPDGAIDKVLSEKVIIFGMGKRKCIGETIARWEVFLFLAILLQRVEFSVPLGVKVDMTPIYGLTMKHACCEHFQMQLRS

[7] = molecular target: T2, P450 1B1; assay: Quenching of P450 1B1; format: binding; details: extrapolated % quenching; 1.0 μM P450 1B1
[8] = molecular target: T2, P450 1B1
[9] = molecular target: T2, P450 1B1; assay: Spectral binding titrations with purified P450 1B1; details: for wavelengths (peak/trough): 1 μM P450 1B1, pH 7.4
[10] = molecular target: T3, P450 1A1; assay: Quenching of inhibitor-derived fluorescence with P450 1A1; details: enzyme and inhibitor 10 nM; 25 °C
[11] = molecular target: T1, P450 1A2; assay: Quenching of inhibitor-derived fluorescence with P450 1A2; details: enzyme and inhibitor 10 nM; 25 °C
[12] = molecular target: T2, P450 1B1; details: cited from earlier work
[13] = molecular target: T3, P450 1A1; details: cited from earlier work
[14] = molecular target: T3, P450 1A1; assay: Inhibition of P450 1A1-dependent EROD activity; format: biochemical; details: for fold increase in EROD Km of P450 1A1: 1PP 66 nM, 3PPh 333 nM

Structure (SMILES)	Kd [1]	IC50 [2]	Kd [3]	mechanism of inhibition of P450 1A2 EROD activity [4]	Kd [6]	PAH binding to P450 1B1 Bmax [7]	ΔAmax / Ks [8]	Kd [9]	wavelengths (peak/trough) [9]	mechanism of inhibition of P450 1B1 [12]	mechanism of inhibition of P450 1A1 [13]	further results
c1ccc2c(c1)cc1ccc3cccc4ccc2c1c34 [B[a]P, benzo[a]pyrene]	~10 µM	0.031 ± 0.004 µM	0.011 µM	directly inhibited by low concentration of B[a]P, but the inhibition was increased with time at higher B[a]P concentrations	~10 µM	–	–	–	–	–	–	half-maximal time (t1/2) to decrease B[a]P emission ([3]; 2.5 nM B[a]P): 33 s; half-maximal time (t1/2) to decrease B[a]P emission ([3]; 5 nM B[a]P): 15 s; half-maximal time (t1/2) to decrease B[a]P emission ([3]; 10 nM B[a]P): 7.5 s; mechanism of inhibition of P450 1A2 [5]: mechanism-based manner
C#Cc1ccc2ccc3cccc4ccc1c2c34 [1EP, 1-ethynylpyrene]	–	0.031 ± 0.004 µM	0.0019 to 0.018 µM	–	–	74 ± 1%	0.017	2.9 ± 1 µM	416/383	direct inhibitors	mechanism-based manner	fluorescence quenching with P450 1A1 [10]: to a lesser extent with P450 1A1 than 1B1; interaction with P450 1A2 (fluorescence quenching) [11]: No interactions
CC#Cc1ccc2ccc3cccc4ccc1c2c34 [1PP, 1-(1-propynyl)pyrene]	~10 µM	0.022 ± 0.003 µM	0.0019 to 0.018 µM	mechanism-based manner	~10 µM	69 ± 1%	0.016	2.7 ± 0.4 µM	416/383	direct inhibitors	mechanism-based manner	EROD kcat of P450 1B1 relative to controls ([2]; 1PP 66 nM, 3PPh 33 nM, after 6 min of incubation): 44%; fold increase in EROD Km of P450 1B1 ([2]; 1PP 66 nM, 3PPh 33 nM, at 15 s): 6.8 fold; EROD kcat of P450 1B1 relative to control, first decrease ([2]; initial stage of incubation): ~ one-fifth; fold increase in EROD Km of P450 1A1 ([14]; at 360 s): 10 fold; fold increase in EROD Km of P450 1A1 ([14]; initial incubation time): ~ 8 fold; mechanism of inhibition of P450 1A1 EROD activity ([14]; 37 °C, 30 min): mechanism-based inhibitors
